Measurements as given in article PMC5551175, “Trypanosoma brucei Inhibition by Essential Oils from Medicinal and Aromatic Plants Traditionally Used in Cameroon (Azadirachta indica, Aframomum melegueta, Aframomum daniellii, Clausena anisata, Dichrostachys cinerea and Echinops giganteus)” (International Journal of Environmental Research and Public …, 2017).
Read-outs that look alike come from different tables or passages of the source.

Key:
[1] = system: T. brucei TC221 bloodstream forms; test: T. brucei growth inhibition assay (resazurin); assay type: cell-based; details: Trypanosoma brucei, 72 h, 48 h + 24 h with resazurine
Protocol: (§1) The cell culture conditions and the growth inhibition assay on T. brucei and Balb/3T3 cells were performed as described before. T. brucei TC221 bloodstream forms and mouse embryonic fibroblast Balb/3T3 cells (ATCC no CCL-163) were cultivated in vented plastic flasks at 37 °C with 5% CO2. For T. brucei, the growth medium was HMI-9 [45] supplemented with 10% (v/v) fetal bovine serum (Gibco, Waltham, MA, USA), whereas the Balb/3T3 cells were grown in Dulbecco’s Modified Eagle’s Medium (Sigma-Aldrich) supplemented with 10% (v/v) heat-inactivated fetal bovine serum, glutamine (0.584 g/L), and 10 mL/L 100× penicillin-streptomycin (Gibco). The essential oils or pure compounds identified from these oils were dissolved in dimethyl sulfoxide (DMSO) and serially diluted with growth medium in white 96-well microtiter plates. 20,000 bloodstream forms of T. brucei or Balb/3T3 cells were added to each well in a final volume of 200 μL. In the case of mammalian cells, we also tested 2000 cells/well with similar results. […] Cell viability was verified by a drug-free control for each compound. The plates were incubated for 48 h in the CO2 incubator; then 20 μL of 0.5 mM resazurine (Sigma Aldrich) was added to each well, and the plates were incubated for an additional 24 h before the fluorescence was measured with an Infinite M200 microplate reader (Tecan group, Ltd., Männedorf, Switzerland) equipped with 540 and 590 nm excitation and emission filters. The half maximal inhibitory concentration (IC50) values were calculated on a log inhibitor versus the response curves by non-linear regression using the GraphPad prism 5.04 software (GraphPad Software, Inc., La Jolla, CA, USA).

Balb/3T3 cells = test: Mammalian cell growth inhibition assay (resazurin); assay type: cell-based, mouse; details: for CC50: BALB/3T3, 72 h, mouse embryonic fibroblast cells, 48 h + 24 h with resazurine, read-out: IC50 Balb/3T3; for Selectivity Index (SI): Balb/3T3 versus T. b. brucei TC221
Protocol: as §1

[2] = read-out: IC50 T. b. brucei (TC221)
[3] = µM value in parentheses, read-out: IC50 T. b. brucei (TC221), value in brackets (converted)

SMILES	IC50 [1, 2] [µg/mL]	IC50 [1, 3] [µM]	CC50 (Balb/3T3 cells) [µg/mL]	Selectivity Index (SI) (Balb/3T3 cells)
Cc1ccc(C(=O)Nc2ccc(S(=O)(=O)O)c3cc(S(=O)(=O)O)cc(S(=O)(=O)O)c23)cc1NC(=O)c1cccc(NC(=O)Nc2cccc(C(=O)Nc3cc(C(=O)Nc4ccc(S(=O)(=O)O)c5cc(S(=O)(=O)O)cc(S(=O)(=O)O)c45)ccc3C)c2)c1 [Suramin, reference compound]	0.0286 ± 0.0008	0.022	–	–
CC1=CCC(O)(C(C)C)CC1 (stereo not shown) [Terpinen-4-ol]	> 100	–	–	–
C=C1CCC2(C(C)C)CC12 (stereo not shown) [Sabinene]	5.96 ± 1.3	43.8	> 100	>16.7
C=C1CC/C=C(\C)CC[C@@H]2[C@@H]1CC2(C)C [(E)-Caryophyllene]	8.25 ± 1.3	40.4	> 100	>12.1

Second part, led by results:

IC50 [1, 2] [µg/mL]	IC50 [1, 3] [µM]	SMILES	CC50 (Balb/3T3 cells) [µg/mL]	Selectivity Index (SI) (Balb/3T3 cells)
> 100	–	CC12CCC(CC1)C(C)(C)O2 [1,8-Cineole]	–	–
11.4 ± 2.6	83.7	C=C1CCC2CC1C2(C)C (stereo not drawn) [β-Pinene]	> 100	>8.77
